Assay results from BindingDB's records for doi:10.7270/Q2D50KGC (Burnham Center For Chemical Genomics, 2011).

Each molecule was assayed against T1, Endoribonuclease toxin MazF (Escherichia coli (strain K12), UniProt P0AE70) (assay: MazF endoribonuclease activators, SAR follow-up, biochemical, fluorescence, single-stranded RNA substrate (AID 588603)).
T1 sequence (P0AE70 whole entry): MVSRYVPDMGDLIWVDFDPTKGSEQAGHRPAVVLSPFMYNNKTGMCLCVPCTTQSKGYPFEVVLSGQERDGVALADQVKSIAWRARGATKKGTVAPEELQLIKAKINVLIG

Structure (SMILES) | EC50 [µM]
C=CCOc1cccc(C2C(C(=O)c3ccc(C)o3)C(=O)C(=O)N2c2nccs2)c1 (stereo not drawn) [3-(5-methylfuran-2-yl)carbonyl-4-oxidanyl-2-(3-prop-2-enoxyphenyl)-1-(1,3-thiazol-2-yl)-2H-pyrrol-5-one] | 22.3
N#Cc1ccc(-n2c(O)c3[nH][nH]c(C(=O)c4ccc5ccccc5n4)c-3c2=O)cc1 [4-[(3aS,6aS)-4,6-dioxo-3-[oxo(2-quinolinyl)methyl]-3a,6a-dihydro-1H-pyrrolo[3,4-c]pyrazol-5-yl]benzonitrile] | 7.74
O=C(c1ccc2ccccc2n1)c1[nH][nH]c2c(O)n(-c3cccc(F)c3)c(=O)c1-2 [(3aS,6aS)-5-(3-fluorophenyl)-3-[oxo(2-quinolinyl)methyl]-3a,6a-dihydro-1H-pyrrolo[3,4-c]pyrazole-4,6-dione] | 24.4
